Source: patent US20230390277A1, “METHODS TO SENSITIZE TUMORS TO TREATMENT BY IMMUNOTHERAPY” (Ohio State Innovation Foundation, priority 2020, published 2023)
Each block holds one compound with its values, some of them ahead of it. Residues, ends and D or L forms follow the SMILES beside them. *: point of attachment. Cbz = O=C(OCc1ccccc1)*

Columns and labels:
[1] = tested on: MP2 pODD flank tumors; experiment: in vivo bioluminescent imaging, heterotopic MP2 pODD flank tumors; set-up: species or system mouse
Experimental: In vivo bioluminescent imaging. […] For heterotopic flank tumor experiments, 1×10^6 HeLa pODD or 5×10^6 MP2 cells were injected subcutaneously (s.c.) into the flanks of 6-wk-old female (HeLa pODD) or male (N1P2 pODD or MP2 CMV) immunocompromised athymic nu/nu mice. Replicate experiments with groups of 4-6 mice were used for statistical reproducibility. Caliper measurements of opposing diameters were used to calculate the tumor volumes using the modified ellipsoidal formula: tumor volume=(length×width^2)[23]. Upon reaching 100 mm^3, the animals were given 100 mg/kg D-luciferin intraperitoneally and bioluminescence images were captured using IVIS In Vivo Imaging System Lumina II (Perkin Elmer Inc). […] Bioluminescent data were analyzed using living Image software (Perkin Elmer Inc) and calculated as photon flux/sec. Obtained individual photon flux peak values were then normalized to baseline for each mouse and averaged per group. Gas inhalation experiments were performed by switching medical air and carbogen gas sources for the IVIS anesthesia vaporizer. Initial baselines were established in medical air under anesthesia, then the mice were subjected to 30 minutes of either medical air or carbogen rebreathing in an air-tight chamber while awake. After 30 minutes, photon flux was established in respective gas sources as a carrier for isoflurane anesthesia.

[2] = target: ETC complex 1 (C1) (Homo sapiens, UniProt O75251+O75306+P03886); experiment: inhibition of cellular OCR by Seahorse XE assay; format: cell-based; settings: for C1 inhibitor selectivity: vs PDE10A
Sequence of ETC complex 1 (C1) (O75251 39-213): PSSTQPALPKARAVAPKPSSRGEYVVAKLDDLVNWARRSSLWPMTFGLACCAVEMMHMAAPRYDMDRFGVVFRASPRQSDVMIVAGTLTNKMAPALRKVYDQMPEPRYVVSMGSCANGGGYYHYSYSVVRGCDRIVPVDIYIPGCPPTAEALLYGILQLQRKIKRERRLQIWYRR
Sequence of ETC complex 1 (C1) (O75306 34-463): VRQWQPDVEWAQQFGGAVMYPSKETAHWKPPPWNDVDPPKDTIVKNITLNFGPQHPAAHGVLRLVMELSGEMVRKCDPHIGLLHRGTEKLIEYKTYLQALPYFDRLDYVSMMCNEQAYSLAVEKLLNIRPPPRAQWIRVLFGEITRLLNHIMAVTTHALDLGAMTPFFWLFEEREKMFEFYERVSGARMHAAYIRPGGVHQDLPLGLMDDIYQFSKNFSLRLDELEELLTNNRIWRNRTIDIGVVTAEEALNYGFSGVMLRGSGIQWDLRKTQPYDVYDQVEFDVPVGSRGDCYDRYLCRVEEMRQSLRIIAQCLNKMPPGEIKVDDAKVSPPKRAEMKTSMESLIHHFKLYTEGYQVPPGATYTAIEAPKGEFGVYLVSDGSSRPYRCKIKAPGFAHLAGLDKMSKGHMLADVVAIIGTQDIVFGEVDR
Sequence of ETC complex 1 (C1) (P03886 whole entry): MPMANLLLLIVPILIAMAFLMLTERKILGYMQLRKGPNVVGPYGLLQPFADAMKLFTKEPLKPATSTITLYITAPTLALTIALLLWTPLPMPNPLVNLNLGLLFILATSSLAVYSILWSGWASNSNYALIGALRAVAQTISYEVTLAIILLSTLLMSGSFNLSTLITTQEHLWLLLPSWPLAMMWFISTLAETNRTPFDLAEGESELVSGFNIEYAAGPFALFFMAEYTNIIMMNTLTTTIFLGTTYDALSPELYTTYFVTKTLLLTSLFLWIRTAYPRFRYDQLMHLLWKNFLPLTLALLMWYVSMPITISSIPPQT
Source text: PPVs PDE and mitochondrial activities are chemically separable. Papaverine has been traditionally thought to be effective as a vasodilator for the treatment of conditions including erectile dysfunction because it can inhibit PDE10A (like PDE 5 inhibitors sildenafil and tadalafil). However, PDE inhibition is not responsible for OCR effects in vitro, so we postulated that there are two activities in PPV, one inhibiting ETC complex 1 (C1) and one inhibiting PDE10A that may reside in different parts of the molecule. We therefore defined the structure activity relationship (SAR) of PPV relative to two assays: inhibition of cellular OCR by Seahorse XE assay, and inhibition of PDE10A by purified enzyme activity (PDE10A activity assay, BPS Bioscience). Because PPV can compete with rotenone at complex 1 (23), we reasoned that they may be binding the same site and therefore the structures would be similar relative to their target. Because the top portion of PPV was a planar structure like that of rotenone, we decided to focus our attention on the lower portion of the molecule.

[3] = target: T1, PDE10A (Homo sapiens, UniProt Q9Y233); experiment: PDE10A purified enzyme activity assay (BPS Bioscience); format: biochemical; settings: for PDE inhibition IC25: dose response analysis
T1 construct: purchased BPS Bioscience
T1 sequence (Q9Y233 whole entry): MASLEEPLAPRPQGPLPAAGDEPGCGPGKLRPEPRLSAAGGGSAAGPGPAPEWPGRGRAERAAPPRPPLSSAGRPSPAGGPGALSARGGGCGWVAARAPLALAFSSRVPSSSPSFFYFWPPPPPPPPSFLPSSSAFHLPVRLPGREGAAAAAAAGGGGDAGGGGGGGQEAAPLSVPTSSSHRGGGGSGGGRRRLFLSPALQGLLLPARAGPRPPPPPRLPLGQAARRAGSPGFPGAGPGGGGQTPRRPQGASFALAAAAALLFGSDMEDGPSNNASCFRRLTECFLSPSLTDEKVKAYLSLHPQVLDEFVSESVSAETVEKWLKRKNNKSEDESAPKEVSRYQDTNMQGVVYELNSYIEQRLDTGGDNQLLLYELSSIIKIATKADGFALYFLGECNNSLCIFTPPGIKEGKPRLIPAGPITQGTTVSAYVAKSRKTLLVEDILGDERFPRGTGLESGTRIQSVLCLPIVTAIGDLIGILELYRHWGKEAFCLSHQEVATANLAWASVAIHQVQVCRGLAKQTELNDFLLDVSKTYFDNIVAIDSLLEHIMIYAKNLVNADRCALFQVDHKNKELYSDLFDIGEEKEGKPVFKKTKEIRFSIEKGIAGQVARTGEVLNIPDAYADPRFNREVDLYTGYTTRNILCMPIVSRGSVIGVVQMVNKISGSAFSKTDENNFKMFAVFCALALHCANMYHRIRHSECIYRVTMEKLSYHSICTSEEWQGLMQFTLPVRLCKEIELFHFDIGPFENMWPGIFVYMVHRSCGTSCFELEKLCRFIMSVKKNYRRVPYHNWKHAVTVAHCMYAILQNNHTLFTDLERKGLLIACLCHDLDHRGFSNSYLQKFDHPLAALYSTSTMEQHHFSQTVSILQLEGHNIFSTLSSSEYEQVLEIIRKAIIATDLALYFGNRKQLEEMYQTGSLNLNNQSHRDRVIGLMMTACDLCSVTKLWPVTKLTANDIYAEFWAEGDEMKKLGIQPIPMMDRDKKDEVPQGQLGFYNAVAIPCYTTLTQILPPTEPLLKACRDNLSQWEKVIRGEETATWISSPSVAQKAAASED
Source text: We therefore defined the structure activity relationship (SAR) of PPV relative to two assays: inhibition of cellular OCR by Seahorse XE assay, and inhibition of PDE10A by purified enzyme activity (PDE10A activity assay, BPS Bioscience). […] Because the top portion of PPV was a planar structure like that of rotenone, we decided to focus our attention on the lower portion of the molecule.

[4] = tested on: MC38 colorectal tumor; experiment: MC38 colorectal tumors in C57Bl6 mice, sensitization to anti PD-1; format: in vivo, mouse
Experimental: MC38 tumors grown in C57B16 mice were treated as indicated with irrelevant antibody, anti PD-1, or anti PD-1 after PPV or SMV32 n=5-7, P=<0.05* for PPV and <0.01** for SMV32.
Papaverine and SMV32 enhance PD-1 checkpoint blockade immunotherapy for cancer treatment. Because of the literature describing the immunomodulatory effects of hypoxia^(24-27), we hypothesized that reducing hypoxia may also enhance tumor lymphocyte infiltration and function and improve immune-mediated tumor cell killing. As those of skill in the art recognize, there is a large body of literature and research on increase the supply side of the hypoxia equation, but it has been heretofore an unexpected approach to decrease the tri demand side of the hypoxia equation. We tested tumors grown from the relatively immune-sensitive syngeneic MC38 colorectal tumor line in immuno-competent C5713116 mice. […] In a second cohort, we implanted 1×10^6 cells/mouse and after 5 days, when tumors were 50-100 mm^3, they were randomized into four groups. Therapy was started with either control rat IgG antibody, or a suboptimal dose of anti PD-1(CD279) blocking monoclonal antibody (BioXCell, clone 29F.1A12, 100 μg ip every 3 days).

[5] = tested on: CMT167 flank lung tumors; experiment: CMT167 flank lung tumors in C57Bl6 mice, sensitization to anti PD-1; format: in vivo, mouse
Experimental: C57B16 mice bearing CMT167 flank lung tumors were treated as indicated on days 10 and 13 and relative volume followed.
There are reports in the literature indicating ways that hypoxia affects immune functions of lymphocytes, MDSCs and T regulatory cells infiltrating in the tumor.

[6] = tested on: LLC tumor; experiment: Lewis Lung Carcinoma (LLC) PD-1 blockade resistant tumor model; format: in vivo, mouse
Experimental: LLC tumor bearing mice were treated as indicated on days 5, 8 and relative growth followed. P=NS for PD-1 vs PPV->PD1, 0.04 for PD-i vs SMV32->PD-1.
Finally, as a rigorous test of anti-hypoxia agents as immuno-sensitizers of model tumors grown in mice, we next tested the PD-1 blockade resistant tumor model Lewis Lung Carcinoma (LLC). These tumors have been reported to be refractory to even full dose (200 ug/mouse) PD-1 blocking antibody.

[7] = tested on: CD8 T cells in MC38 tumors; experiment: multispectral immunophenotyping of tumor infiltrating lymphocytes in MC38 tumors; format: in vivo, mouse; settings: 2 mg/kg IV days 8, 10, 13; tumors harvested day 15
Experimental: Panel A Tumor infiltrating immune cells isolated from Day 15 MC38 tumors (n=4/g) were stained for lineage (CD45, CD3, CD8, […], and CD11b) and T cell exhaustion (PD1, Tim3, Slamf6, TOX, Tcf1, CD44, CD62L, CTLA4, Lag-3, Klrg1, T-bet, and Ki-67) (93-96). Cells were analyzed by Cytek Aurora multi-spectral FACS, and Umap generated based on concatenated file from each 4 FSC files without variation in cell number. Limp figure was generated by OMIQ with CD8 T cells (CD45+, CD3+, CD8+, CD11b−, CD4−). CD8 population was divided into 15 clusters based on T cell markers. Expression signatures marked (ovals) show progenitor exhausted T cells and terminally exhausted T cells. Panel B Statistical significance of clusters between control and SMV32 treated group were assessed by edgeR and SAM (n=4 mice per group).
In order to determine a mechanism by which reduction in hypoxia enhances immune function in the solid tumor, we undertook an investigation with multi spectral immunophenotyping. This technology uses 36 different markers simultaneously to characterize immune cell infiltrate in tumors. We performed this analysis on heterotopic NIC38 murine colorectal carcinoma tumors grown in immune-competent C57BI6 mouse strain. A cohort of tumor bearing mice were randomized to be treated with either IV delivery of vehicle control, or either PPV or SMV32. […]

[8] = tested on: cells; experiment: in vitro washout experiments; format: cell-based; settings: initial studies
[9] = tested on: murine tumors; experiment: murine tumor hypoxia and radiation response; settings: mouse, in vivo
[10] = tested on: orthotopic MP2 pODD tumors; experiment: in vivo bioluminescent imaging, orthotopic MP2 pODD tumors; set-up: species or system mouse; settings: 2 mg/kg, tail vein
Experimental: Orthotopic Panreatic Xenografts. MP2 PD AC cells (1×10^6) or the indicated derivates were implanted in immune-deficient athymic nu/nu mice following fACLIC approved protocols. Briefly, an incision was placed in the right flank of anesthetized animals the spleen and pancreas liberated. Cells were mixed 1:1 with Matfigel and implanted in the tail of the pancreas in 10 μl. Incision was sutured in 2 layers, animals given long lasting analgesics, and allowed to recover from anesthesia. Mice were returned to housing for post-op care and monitored daily for 4 days. Animals were checked weekly after that by palpation to determine tumor growth.
In vivo bioluminescent imaging. All animal experiments were performed according to protocols approved by the OSU institutional IAGLIC review (protocol #201200000124-R2), with daily veterinarian observation. For heterotopic flank tumor experiments, 1×10^6 HeLa pODD or 5×10^6 MP2 cells were injected subcutaneously (s.c.) into the flanks of 6-wk-old female (HeLa pODD) or male (N1P2 pODD or MP2 CMV) immunocompromised athymic nu/nu mice. […] Mice were anesthetized with 1.5% isoflurane and bioluminescence was measured every two minutes for the period of 25 minutes to identify peak response of each mouse to D-luciferin. Bioluminescent data were analyzed using living Image software (Perkin Elmer Inc) and calculated as photon flux/sec. […]

[11] = tested on: pODD-Luc reporter in MP2 pODD cells; experiment: in vitro luciferase assay, MP2 pODD cells; format: cell-based, human; settings: one hour of 10 μM
Experimental: PCR-amplified cassette was then digested with Asci and Pmel restriction enzymes and ligated into pLenti-C-Myc-DDK-IRES-Puro. Correct orientation and sequence was confirmed by Sanger DNA sequencing. HeLa pODD and MIP2 pODD transfectants were selected with 2 μg/ml Puromycin for two weeks. Stable MP2 CMV Cells were generated by lentiviral transduction of MP2 cells with pLenti-CMV-Puro-Luc lentiviral vector (Addgene#17477) with 2 Puromycin selection for two weeks. Cells were grown in Dulbecco's Modified Eagle's Medium (DMEM) containing 25 mM D-glucose, 4 mM glutamine and 44 mM sodium bicarbonate in 5% CO2, if not stated otherwise. The cells were exposed to hypoxia (1% O2) in H35 Hypoxic Workstation (Hypoxygen) with 5% CO2 at 37° C. In some experiments, we used a hypoxia mimetic dimethyloxalyglycine (DMOG) as described. Cell counts and cellular proliferation were established using hemocytometer to determine the cell number and trypan blue exclusion assay to establish the fraction of viable/dead cells. All human cell lines have been authenticated using STR profiling within the past 3 years. All experiments were performed with mycoplasma-free cells.
In vitro luciferase Assay. Proteins were extracted using Luciferase Assay Lysis Buffer (125 mM Tris-HCl, pH 7.5, 11.0 mM DTT, 10 mM EGTA, 50% Glycerol, 5% Triton X-100) and 200 μl/sample were transferred to 96-well plate and D-luciferin was added to the final concentration of 150 μg/ml immediately before the assay. Bioluminescence was measured on a Synergy H1 Hybrid Plate Reader (Biotek) after a 10-minute incubation period (10 slsample, Gain=150) in triplicates.

SMILES: O=[N+]([O-])c1ccc(O)c([N+](=O)[O-])c1 [2,4-DNP, 2,4-dinitrophenol]
increase of photon flux compared to baseline ([1]; single intraperitoneal dose of 20 mg/kg): 1.6 ×

PDE inhibition IC25 [3]: 13.4 µM | washout from cells [8]: does not wash out of cells
SMILES: COc1cc2ccnc(Cc3cccc4ccccc34)c2cc1OC [SMV32]
mitochondrial activity [2]: retain mitochondrial activity | C1 inhibitor selectivity [2]: relatively pure | effect on PD-1 blockade ([4]; 2 mg/kg iv 16 hours prior to suboptimal anti PD-1 (100 μg ip every 3 days)): enhance the effectiveness of suboptimal PD-1 blockade | tumor growth, compound alone ([4]; repeated dosing, no antibody): no effect on tumor growth | tumor growth delay ([5]; given 16 hours prior to sub-optimal anti-PD-1, days 10 and 13): significant tumor growth delay | comparison with PPV for sensitizing tumors to PD-1 blockade ([5]; same dose as PPV): superior to PPV | comparison with PPV for sensitizing tumors to PD-1 blockade ([6]; resistant LLC tumors): superior to PPV | therapeutic effect, compound first and PD-1 antibody second ([6]; treated on days 5, 8): significant growth inhibition | exhausted CD8 T cell populations [7]: shift from terminal (known to be non-functional) to progenitor cells | radiation response [9]: increase radiation response of murine tumors | tumor hypoxia [9]: reduce tumor hypoxia | photon flux compared to PPV treated mice [10]: trended to longer duration of action and lower luciferase activity at 6 hours

SMILES: COc1ccc(OCc2nccc3cc(OC)c(OC)cc23)cc1OC [SMV37]
mitochondrial activity [2]: retain mitochondrial activity | C1 inhibitor selectivity [2]: relatively pure | radiation response [9]: increase radiation response of murine tumors | tumor hypoxia [9]: reduce tumor hypoxia

SMILES: CC(C)C[C@H](NC(=O)[C@H](Cc1ccccc1)NC(=O)c1cnccn1)B(O)O [bortezomib]
photon flux ([1]; 1 mg/kg intraperitoneally, 2 hours post injection): significant increase of photon flux

SMILES: CC(C)C[C@@H](C=O)NC(=O)[C@H](CC(C)C)NC(=O)[C@H](CC(C)C)NC(=O)OCc1ccccc1 [MG132] (Cbz-Leu-Leu-Leu-aldehyde)
increase in pODD-Luc activity compared to 24 h hypoxia [11]: 70 fold | induction of pODD-Luc activity compared to normoxia [11]: 377 fold

PDE inhibition IC25 [3]: 0.5 µM | PDE10A inhibitor selectivity ([3]; vs C1): relatively pure
SMILES: COc1cc2ccnc(Cc3cc(C)cc(C)c3)c2cc1OC [SMV23]

SMILES: O=C(O)C(Cl)Cl [DCA, Dichloroacetate]
increase of photon flux ([1]; intraperitoneal 75 mg/kg): 1.8 ×
